Literature values, collected in patent US8956669B2, “Anticancer and antimicrobial compounds from antarctic extremophilic microorgansims” (priority 2009, dated 2015).
Marks after values point to notes of the source that are not given here.

How the values were obtained:
Mycobacterium smegmatis = conditions: literature values, Table 2
[1] = test system: Mycobacterium tuberculosis; conditions: literature values, Table 2

Compound | MIC against Mycobacterium smegmatis (Mycobacterium smegmatis) | MIC against Mycobacterium tuberculosis [1]
COc1ccc(CCN(C)CCCC(C#N)(c2ccc(OC)c(OC)c2)C(C)C)cc1OC (stereo not drawn) [Verapamil] | 256^a μg/ml | 
COC(=O)[C@H]1[C@H]2C[C@@H]3c4[nH]c5cc(OC)ccc5c4CCN3C[C@H]2C[C@@H](OC(=O)c2cc(OC)c(OC)c(OC)c2)[C@@H]1OC [Reserpine] | 128^a μg/ml | 
C=CCS[S+]([O-])CC=C (stereo not drawn) [Allicin] |  | 25^k μg/ml
CN(C)CCCN1c2ccccc2Sc2ccc(Cl)cc21 [Chlorpromazine] | 64^a μg/ml | 
Cc1cc(O)c2c(c1)C(=O)C(c1c(C)cc3c(c1O)C(=O)C=CC3=O)=CC2=O [Diospyrin] | 100^j μg/ml | 100^j μg/ml
O=c1cc(-c2ccccc2O)oc2cc(O)cc(O)c12 [5,7,2′-trihydroxyflavone] | 31^h μg/ml | 10^h μg/ml
O=C(O)[C@H]1O[C@@H](Oc2cc3oc(-c4ccccc4)cc(=O)c3c(O)c2O)[C@H](O)[C@@H](O)[C@@H]1O [Baicalin] | 256^a μg/ml | 
NNC(=O)c1ccncc1 [Isoniazid] | 5^b μg/ml | 0.1^f μg/ml
CO[C@H]1/C=C/O[C@@]2(C)Oc3c(C)c(O)c4c(O)c(c(/C=N/N5CCN(C)CC5)c(O)c4c3C2=O)NC(=O)/C(C)=C\C=C\[C@H](C)[C@H](O)[C@@H](C)[C@@H](O)[C@@H](C)[C@H](OC(C)=O)[C@@H]1C [Rifampcin] | 1^b μg/ml | 0.1^f μg/ml
Oc1ccc(C=Cc2cc(O)cc(O)c2)cc1 [Resveratrol] | 64^a μg/ml | 
Laburnetin |  | 4.88^e μg/ml
O=C(O)c1cn(C2CC2)c2cc(N3CCNCC3)c(F)cc2c1=O [Ciprofloxacin] | 1^c μg/ml | 0.5^g μg/ml
O=c1c(-c2ccc(O)cc2)coc2cc(O)ccc12 [Daidzein] | 256^a μg/ml | 
Diospyrone | 1.22^l μg/ml | 39.06^l μg/ml
CC1=CC(=O)c2c(O)cccc2C1=O [plumbagin] | 1.22^l μg/ml | 39.06^l μg/ml
O=c1cc(-c2ccccc2)oc2cc(O)c(O)c(O)c12 [Baicalein] | 64^a μg/ml | 
COc1ccc(-c2coc3cc(O)cc(O)c3c2=O)cc1 [Biochanin A] | 256^a μg/ml | 
O=c1cc(-c2ccc(O)c(O)c2)oc2cc(O)cc(O)c12 [Luteolin] | 32^a μg/ml | 200^d μg/ml
O=c1c(O)c(-c2cc(O)c(O)c(O)c2)oc2cc(O)cc(O)c12 [Myricetin] | 32^a μg/ml | 
Cc1cc(O)c2c(c1)C(=O)c1c(oc3c1c(=O)oc1cccc(C)c13)C2=O [crassiflorone] | 1.22^l μg/ml | 39.06^l μg/ml
O=c1c(-c2ccc(O)cc2)coc2cc(O)cc(O)c12 [Genistein] | 256^a μg/ml | 
